Laboratory results taken from patent publication US8519143B2, “Derivatives of (bridged piperazinyl)-1-alkanone and use thereof as p75 inhibitors” (Sanofi, priority 2008, dated 2013).

What was measured:
[1] = molecular target: T1, p75^NTR receptor (Homo sapiens, UniProt P08138); assay: Binding of 125I NGF to the p75NTR receptor on SK-N-BE Bep 75 cell suspension; parameters: the whole form of the human p75^NTR receptor; expressed in transfected cells; host or cells: SK-N-BE (human neuroblastoma), clone Bep 75, hygromycin selection
T1 sequence (P08138 29-427): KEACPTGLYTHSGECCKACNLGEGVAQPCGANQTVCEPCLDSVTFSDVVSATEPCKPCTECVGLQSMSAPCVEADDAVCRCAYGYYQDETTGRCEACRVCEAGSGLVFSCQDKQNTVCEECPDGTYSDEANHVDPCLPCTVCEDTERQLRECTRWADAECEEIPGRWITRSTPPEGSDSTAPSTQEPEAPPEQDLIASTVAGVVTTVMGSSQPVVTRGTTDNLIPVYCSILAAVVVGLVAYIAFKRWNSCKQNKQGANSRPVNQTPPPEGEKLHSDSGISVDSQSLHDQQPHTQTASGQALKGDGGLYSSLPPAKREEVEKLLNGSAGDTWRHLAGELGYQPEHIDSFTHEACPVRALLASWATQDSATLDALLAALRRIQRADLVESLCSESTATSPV
Protocol: (§1) The parent strain SK-N-BE (human neuroblastoma) and the clone Bep 75, stably expressing the whole form of the human p75^NTR receptor (SK-N-BE Bep 75), are cultured conventionally in an RPMI culture medium containing FCS (5%), sodium pyruvate (1 mM) and glutamine (4 mM). For the SK-N-BE Bep 75 cells, hygromycin (200 μl/20 ml of medium) is added as selection agent.
Study of the binding of ^125I NGF to the p75^NTR receptor The study of NGF binding (nerve growth factor radiolabelled with iodine-125, Amersham—2000 Ci/mmol) is carried out on a cell suspension of the SK-N-BE Bep 75 strain in accordance with the method described by Weskamp (Neuron, 1991, 6, 649-663). The non-specific binding is determined by measuring the total binding after preincubation for one hour with cells at 37° C. in the presence of non-radiolabelled NGF (1 μM). The specific binding is calculated by the difference between the total binding measurement and the non-specific binding measurement. The competition experiments are carried out using an iodinated NGF (^125I NGF) concentration of 0.3 nM.

[2] = tested on: human neuroblastoma strains SH-SY-5Y and SK-N-BE Bep 75; assay: Measurement of apoptosis (NGF-induced, cell death detection ELISA); assay type: cell-based; conditions: SH-SY5Y, NGF 10 ng/ml, 48 h (SH-SY-5Y) or 24 h (SK-N-BE Bep 75), cell strain not given, read-out: IC50 of NGF-induced apoptosis inhibition
Protocol: The SH-SY-5Y strain (human neuroblastoma) is cultured conventionally in a DMEM culture medium (Dulbecco's Modified Eagle's Medium) (Gibco BRL, France) containing FCS (5%) (foetal calf serum) (Boehringer Mannheim, Germany), sodium pyruvate (1 mM) and glutamine (4 mM) in collagen-coated culture flasks (Becton Dickinson, France).
as §1
The cells (human neuroblastoma strains SH-SY-5Y and SK-N-BE Bep 75) are placed in Petri dishes 35 mm in diameter (Biocoat collagen I (10^5 cells/well)) in an appropriate culture medium containing 5% FCS for 24 h. The culture medium is then removed, the cells are rinsed with PBS (Dulbecco's Phosphate buffered saline), and then either fresh medium containing 5% FCS, or medium containing NGF (at the concentration of 10 ng/ml) or beta-amyloid peptide (Aβ1-40) (at the concentration of 10 μM) is added, in the presence or absence of the compounds according to the invention. The degrees of apoptosis are measured 48 hours after the treatments in the case of the SH-SY-5Y strain, and 24 hours after the treatments in the case of the SK-N-BE Bep 75 strain, by quantifying the cytoplasmic histones associated with DNA fragments (cell death detection ELISA, Boehringer Mannheim, Germany). The degrees of apoptosis are expressed as quantity of oligonucleosomes/10^5 cells. Each value corresponds to the mean of 9 experimental points distributed over 3 independent experiments.

[3] = molecular target: T1, p75^NTR receptor; assay: p75NTR receptor dimerisation independently of its ligand (soluble p75NTR-alkaline phosphatase binding to SK-N-BE Bep 75 cells); parameters: the whole form of the human p75^NTR receptor; expressed in transfected cells; host or cells: SK-N-BE Bep 75 cells (membrane receptor); HEK293 cells transfected for 48 h (secreted soluble fusion)
Protocol: as §1
Study of p75^NTR receptor dimerisation independently of its ligand The study of p75^NTR receptor dimerisation is carried out on a cell suspension of the SK-N-BE Bep 75 strain. The cells (2.5×10^4 cells/well) are placed in wells (96-well plate) for 24 h, and then preincubated for 1 h at 37° C. in the presence or absence of the compounds according to the invention. Supernatant, derived from culturing HEK293 human cells of renal origin expressing, after transfection for 48 h, and secreting a soluble form of the p75^NTR receptor (extracellular part of the receptor) coupled to an alkaline phosphatase, is then added at the final concentration of 10 nM. The quantification of the specific binding of the soluble p75^NTR receptor to the receptor present on SK-N-BE Bep 75 cells is determined by measuring the enzymatic alkaline phosphatase activity after incubation of the cells for 1 hour at 37° C. in the presence of the supernatant. After filtration and transfer of the filters into 24-well plates, the alkaline phosphatase activity is determined by adding CDP-Star chemiluminescent substrate (ready-to-use, Roche).

SMILES	IC50 [1] [pM]	IC50 [2] [pM]	IC50 [3] [pM]
O=C(CN1CC2CCC(C1)N2c1ccc(C(F)(F)F)cn1)N1CC=C(c2ccc(Cl)cc2)CC1 [Compound No. 7, 1-[4-(4-chlorophenyl)-3,6-dihydro-2H-pyridin-1-yl]-2-[8-(5-trifluoromethylpyridin-2-yl)-3,8-diazabicyclo[3.2.1]oct-3-yl]ethanone]	290	–	–
O=C(CN1CC2CCC(C1)N2c1cccnc1)N1CC=C(c2ccc(Cl)c(C(F)(F)F)c2)CC1 [Compound No. 27, 1-[4-(4-chloro-3-trifluoromethylphenyl)-3,6-dihydro-2H-pyridin-1-yl]-2-(8-pyridin-3-yl-3,8-diazabicyclo[3.2.1]oct-3-yl)ethanone]	–	88	230
O=C(O)c1ccc(N2C3CCC2CN(CC(=O)N2CC=C(c4ccc(Cl)c(C(F)(F)F)c4)CC2)C3)nc1 [Compound No. 29, 6-(3-{2-[4-(4-chloro-3-trifluoromethylphenyl)-3,6-dihydro-2H-pyridin-1-yl]-2-oxoethyl}-3,8-diazabicyclo[3.2.1]oct-8-yl)nicotinic acid]	–	220	140
O=C(CN1C2CCC1CN(c1cnccn1)C2)N1CC=C(c2cccc(C(F)(F)F)c2)CC1 [Compound No. 3, 2-(3-pyrazin-2-yl-3,8-diazabicyclo[3.2.1]oct-8-yl)-1-[4-(3-trifluoromethylphenyl)-3,6-dihyro-2H-pyridin-1-yl]ethanone]	–	67	50
COC(=O)c1ccc(N2C3CCC2CN(CC(=O)N2CC=C(c4ccc(Cl)c(C(F)(F)F)c4)CC2)C3)nc1 [Compound No. 28, 6-(3-{2-[4-(4-chloro-3-trifluoromethylphenyl)-3,6-dihydro-2H-pyridin-1-yl]-2-oxoethyl}-3,8-diazabicyclo[3.2.1]oct-8-yl)nicotinic acid methyl ester]	–	–	9840
O=C(CN1CC2CCC(C1)N2c1ccc(C(F)(F)F)cn1)N1CC=C(c2cccc(C(F)(F)F)c2)CC1 [Compound No. 1, 1-[4-(3-trifluoromethylphenyl)-3,6-dihydro-2H-pyridin-1-yl]-2-[8-(5-trifluoromethylpyridin-2-yl)-3,8-diazabicyclo[3.2.1]oct-3-yl]ethanone]	1350	1330	23400
COC(=O)c1cccc(C2=CCCN(C(=O)CN3CC4CCC(C3)N4c3ncc(F)cn3)C2)c1 [Compound No. 53, 3-(1-{2-[8-(5-fluoropyrimidin-2-yl)-3,8-diazabicyclo[3.2.1]oct-3-yl]acetyl}-1,2,5,6-tetrahydropyridin-3-yl)benzoic acid methyl ester]	–	–	2080
O=C(CN1CC2CCC(C1)N2c1ccc(C(F)(F)F)cn1)N1CC=C(c2ccc(Cl)c(C(F)(F)F)c2)CC1 [Compound No. 8, 1-[4-(4-chloro-3-trifluoromethylphenyl)-3,6-dihydro-2H-pyridin-1-yl]-2-[8-(5-trifluoromethylpyridin-2-yl)-3,8-diazabicyclo[3.2.1]oct-3-yl]ethanone]	–	2240	680
O=C(CN1CC2CCC(C1)N2c1ncccn1)N1CC=C(c2ccc(Cl)cc2)CC1 [Compound No. 2, 1-[4-(4-chlorophenyl)-3,6,-dihydro-2H-pyridin-1-yl]-2-(8-pyrimidin-2-yl-3,8-diazabicyclo[3.2.1]oct-3-yl)ethanone]	180	–	–
O=C(CN1CC2CCC(C1)N2c1ncc(F)cn1)N1CC=C(c2ccc(Cl)c(C(F)(F)F)c2)CC1 [Compound No. 11, 1-[4-(4-chloro-3-trifluoromethylphenyl)-3,6-dihydro-2H-pyridin-1-yl]-2-[8-(5-fluoropyrimidin-2-yl)-3,8-diazabicyclo[3.2.1]oct-3-yl]ethanone]	980	210	200
